TGI data for seven compounds are collected here from PubChem BioAssay (NCI).

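Method: 48-hour compound exposure of cells in 96-well plates, five concentrations, linear interpolation of endpoints. TGI marks complete inhibition of growth.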

Among the test systems are 786-0 renal; ACHN renal; BT-549 breast; CAKI-1 renal; CCRF-CEM leukemia; EKVX NSCLC; HCC-2998 colon; HCT-15 colon; IGROV1 ovarian; LOX IMVI melanoma; MALME-3M melanoma; MDA-N; NCI-H23 lung; OVCAR-8 ovarian; SK-MEL-2 melanoma; SK-MEL-28 melanoma; SK-OV-3 ovarian; SN12C renal; SW-620 colon; TK-10 renal.
What all share (assay): inhibition of tumour cell growth, NCI panel, 48 h

`Nc1nc(Nc2ccccc2)sc1C(=O)c1cccs1`: the TGI is 28.6 µM in the assay with 786-0 renal; more than 69.8 µM in the assay on ACHN renal; 35.7 µM with BT-549 breast; 62.3 µM in the assay on CAKI-1 renal; 16.6 µM in the assay with CCRF-CEM leukemia; 31.8 µM in the assay on EKVX NSCLC. Also, the TGI in the assay with HCC-2998 colon stood at 32.6 µM; in the assay on HCT-15 colon it was 27.2 µM; in the assay on IGROV1 ovarian it was 36.3 µM; with LOX IMVI melanoma, 27.3 µM; in the assay with MALME-3M melanoma it was 37.3 µM; in the assay on MDA-N it was 46.4 µM. For the same compound, the TGI in the assay on NCI-H23 lung was 38.1 µM; in the assay with OVCAR-8 ovarian it was 78.4 µM; with SK-MEL-2 melanoma it was 29.6 µM; in the assay on SK-MEL-28 melanoma, more than 62.4 µM; in the assay on SK-OV-3 ovarian it was 90.2 µM; in the assay with SN12C renal, 38.3 µM. The TGI in the assay with SW-620 colon is 37.7 µM; in the assay with TK-10 renal, 46.8 µM.

For `CCOC(=O)C(NCc1cccc(C(F)(F)F)c1)(NC(=O)CC)C(F)(F)F` (stereo not given), the TGI with 786-0 renal, with ACHN renal, in the assay on BT-549 breast, with CAKI-1 renal, with CCRF-CEM leukemia and in the assay with EKVX NSCLC was more than 100 µM throughout. The TGI in the assay on HCC-2998 colon, in the assay on HCT-15 colon, in the assay on IGROV1 ovarian, with LOX IMVI melanoma, in the assay on MALME-3M melanoma and in the assay with MDA-N was more than 100 µM throughout. For the same compound, the TGI with NCI-H23 lung, in the assay on OVCAR-8 ovarian, in the assay on SK-MEL-2 melanoma, in the assay with SK-MEL-28 melanoma, in the assay on SK-OV-3 ovarian and in the assay on SN12C renal was more than 100 µM each time. For the same compound, the TGI with SW-620 colon and in the assay on TK-10 renal was more than 100 µM throughout.

For the compound `COC1CC(NC(=O)C(F)(F)F)C(OC(C)=O)C(C)O1` (stereo not given), the TGI with 786-0 renal, in the assay with ACHN renal, with BT-549 breast, with CAKI-1 renal, in the assay on CCRF-CEM leukemia and in the assay with EKVX NSCLC was more than 100 µM each time. Also, the TGI in the assay with HCC-2998 colon, in the assay on HCT-15 colon, in the assay with IGROV1 ovarian, in the assay with LOX IMVI melanoma, in the assay on MALME-3M melanoma and in the assay with MDA-N was more than 100 µM each time. Further, the TGI in the assay with NCI-H23 lung, with OVCAR-8 ovarian, in the assay on SK-MEL-2 melanoma, in the assay on SK-MEL-28 melanoma, in the assay on SK-OV-3 ovarian and in the assay with SN12C renal was more than 100 µM each time. The TGI in the assay with SW-620 colon and in the assay with TK-10 renal was more than 100 µM in each case.

`Cc1ccc(C)c2c1CC(Cc1ccccc1C(=O)O)C2=O` (stereo not given): the TGI in the assay on 786-0 renal, in the assay on ACHN renal, in the assay with BT-549 breast, in the assay on CAKI-1 renal, with CCRF-CEM leukemia and with EKVX NSCLC was more than 100 µM throughout. Moreover, the TGI in the assay with HCC-2998 colon, in the assay with HCT-15 colon, in the assay on IGROV1 ovarian, in the assay on LOX IMVI melanoma, in the assay on MALME-3M melanoma and in the assay with MDA-N was more than 100 µM each time. Also, the TGI in the assay with NCI-H23 lung, in the assay with OVCAR-8 ovarian, in the assay with SK-MEL-2 melanoma, with SK-MEL-28 melanoma, in the assay on SK-OV-3 ovarian and in the assay on SN12C renal was more than 100 µM in each case. Further, the TGI with SW-620 colon and in the assay on TK-10 renal was more than 100 µM throughout.

For `CN(C)CCCCN1c2ccccc2Sc2ccc(C(=O)c3ccccc3)cc21`, the TGI with 786-0 renal stood at 4.83 µM; with ACHN renal, 7.19 µM; in the assay on BT-549 breast it was 18.8 µM; with CAKI-1 renal it was 5.32 µM; in the assay on CCRF-CEM leukemia it was 6.61 µM; in the assay on EKVX NSCLC, 15.9 µM. Also, the TGI stood at 3.97 µM in the assay on HCC-2998 colon; 9.27 µM in the assay on HCT-15 colon; 7.89 µM with IGROV1 ovarian; 3.44 µM in the assay with LOX IMVI melanoma; 3.33 µM in the assay on MALME-3M melanoma; 6.74 µM in the assay on MDA-N. The TGI worked out at 34.2 µM with NCI-H23 lung; 7.91 µM with OVCAR-8 ovarian; 6.59 µM with SK-MEL-2 melanoma; 3.72 µM in the assay with SK-MEL-28 melanoma; 27.2 µM in the assay on SK-OV-3 ovarian; 9.84 µM in the assay with SN12C renal. Further, the TGI was determined as 2.91 µM in the assay on SW-620 colon and 8.42 µM with TK-10 renal.

As to `Cc1ccc2[nH]c3c(c2c1)C1CCC(C(C)(C)C)CC1C1C(=O)N(c2ccc4c(c2)OCO4)C(=O)C31` (stereo not given), the TGI is 3 µM in the assay with 786-0 renal; 3.63 µM in the assay with ACHN renal; 20.6 µM with BT-549 breast; 5.54 µM with CAKI-1 renal; 3.81 µM in the assay on CCRF-CEM leukemia; 10.1 µM in the assay on EKVX NSCLC. Moreover, the TGI in the assay with HCC-2998 colon was 5.84 µM; with HCT-15 colon, 16.5 µM; in the assay on IGROV1 ovarian, 6.68 µM; in the assay on LOX IMVI melanoma it was 6.25 µM; in the assay with MALME-3M melanoma, 6.14 µM; with MDA-N it was 17.6 µM. For the same compound, the TGI in the assay with NCI-H23 lung is 18.3 µM; in the assay with OVCAR-8 ovarian, 4.28 µM; with SK-MEL-2 melanoma, 19.3 µM; with SK-MEL-28 melanoma, 17.9 µM; in the assay on SK-OV-3 ovarian it was 6.86 µM; in the assay with SN12C renal it was 4.96 µM. The TGI turned out to be 7.95 µM with SW-620 colon and 4.32 µM in the assay with TK-10 renal.

With `CNC(=O)CN(C)C(=O)CCC(=O)N(C)C`, the TGI with 786-0 renal, in the assay on ACHN renal, with BT-549 breast, with CAKI-1 renal, with CCRF-CEM leukemia and with EKVX NSCLC was more than 100 µM in each case. For the same compound, the TGI with HCC-2998 colon, in the assay with HCT-15 colon, in the assay on IGROV1 ovarian, in the assay on LOX IMVI melanoma, in the assay with MALME-3M melanoma and in the assay on MDA-N was more than 100 µM each time. Moreover, the TGI with NCI-H23 lung, in the assay on OVCAR-8 ovarian, with SK-MEL-2 melanoma, in the assay on SK-MEL-28 melanoma, with SK-OV-3 ovarian and in the assay with SN12C renal was more than 100 µM each time. For the same compound, the TGI in the assay with SW-620 colon and in the assay on TK-10 renal was more than 100 µM throughout.
